# PubChem BioAssay (NCI)
#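 Method: 48-hour compound exposure of cells in 96-well plates, five concentrations, linear interpolation of endpoints. GI50 = concentration required for 50% inhibition of growth. TGI: total growth inhibition.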
# What was measured:
# Assay in all cases: growth of human tumour cells (NCI), 48 h
# HT29 colon = tested on: HT29 colon
# U251 CNS = tested on: U251 CNS
# HOP-62 NSCLC = tested on: HOP-62 NSCLC
# M14 melanoma = tested on: M14 melanoma
# IGROV1 ovarian = tested on: IGROV1 ovarian
# NCI-H23 lung = tested on: NCI-H23 lung
# BT-549 breast = tested on: BT-549 breast
# HCT-116 colon = tested on: HCT-116 colon
# EKVX NSCLC = tested on: EKVX NSCLC
# NCI-H460 lung = tested on: NCI-H460 lung
# SN12C renal = tested on: SN12C renal
# SK-MEL-5 melanoma = tested on: SK-MEL-5 melanoma
# SF-268 CNS = tested on: SF-268 CNS
# MCF7 breast = tested on: MCF7 breast
# RXF 393 renal = tested on: RXF 393 renal
# MDA-MB-231 breast = tested on: MDA-MB-231 breast
# UACC-257 melanoma = tested on: UACC-257 melanoma
# SR leukemia = tested on: SR leukemia
# HCT-15 colon = tested on: HCT-15 colon
# SK-MEL-2 melanoma = tested on: SK-MEL-2 melanoma
# A549 NSCLC = tested on: A549 NSCLC
# OVCAR-3 ovarian = tested on: OVCAR-3 ovarian
# COLO 205 colon = tested on: COLO 205 colon
# PC-3 prostate = tested on: PC-3 prostate
# HS 578T breast = tested on: HS 578T breast
# OVCAR-8 ovarian = tested on: OVCAR-8 ovarian
# SNB-19 CNS = tested on: SNB-19 CNS
# SF-539 CNS = tested on: SF-539 CNS
# NCI-H522 lung = tested on: NCI-H522 lung
# SW-620 colon = tested on: SW-620 colon
# SF-295 CNS = tested on: SF-295 CNS
# NCI/ADR-RES ovarian = tested on: NCI/ADR-RES ovarian
# MOLT-4 leukemia = tested on: MOLT-4 leukemia
# TK-10 renal = tested on: TK-10 renal
# CCRF-CEM leukemia = tested on: CCRF-CEM leukemia
# MDA-MB-435 = tested on: MDA-MB-435
# SK-OV-3 ovarian = tested on: SK-OV-3 ovarian
# K-562 leukemia = tested on: K-562 leukemia
# NCI-H226 lung = tested on: NCI-H226 lung
# T-47D breast = tested on: T-47D breast
# OVCAR-5 ovarian = tested on: OVCAR-5 ovarian
# 786-0 renal = tested on: 786-0 renal
# RPMI-8226 leukemia = tested on: RPMI-8226 leukemia
# UO-31 renal = tested on: UO-31 renal
# CAKI-1 renal = tested on: CAKI-1 renal
# KM12 colon = tested on: KM12 colon
# A498 renal = tested on: A498 renal
# HOP-92 NSCLC = tested on: HOP-92 NSCLC
# UACC-62 melanoma = tested on: UACC-62 melanoma
structure (smiles),measurement,setting,value
CC1(C)CCC2(C(=O)O)CC[C@]3(C)C(=CCC4C5(C)CC[C@H](OC6OC(C(=O)O)C(O)C(OC7OC(CO)C(O)C(O)C7O)C6OC6OC(CO)C(O)C(O)C6O)C(C)(C)C5CCC43C)C2C1 (stereo partly drawn),GI50,HT29 colon,40.9 µM
same,TGI,HT29 colon,> 100 µM
same,GI50,U251 CNS,32.3 µM
same,TGI,U251 CNS,89.4 µM
same,GI50,HOP-62 NSCLC,> 100 µM
same,TGI,HOP-62 NSCLC,> 100 µM
same,GI50,M14 melanoma,79.9 µM
same,TGI,M14 melanoma,> 100 µM
same,GI50,IGROV1 ovarian,> 100 µM
same,TGI,IGROV1 ovarian,> 100 µM
same,GI50,NCI-H23 lung,20.2 µM
same,TGI,NCI-H23 lung,42.7 µM
same,GI50,BT-549 breast,> 100 µM
same,TGI,BT-549 breast,> 100 µM
same,GI50,HCT-116 colon,> 100 µM
same,TGI,HCT-116 colon,> 100 µM
same,GI50,EKVX NSCLC,> 100 µM
same,TGI,EKVX NSCLC,> 100 µM
same,GI50,NCI-H460 lung,> 100 µM
same,TGI,NCI-H460 lung,> 100 µM
same,GI50,SN12C renal,84 µM
same,TGI,SN12C renal,> 100 µM
same,GI50,SK-MEL-5 melanoma,> 100 µM
same,TGI,SK-MEL-5 melanoma,> 100 µM
same,GI50,SF-268 CNS,> 100 µM
same,TGI,SF-268 CNS,> 100 µM
same,GI50,MCF7 breast,53.5 µM
same,TGI,MCF7 breast,> 100 µM
same,GI50,RXF 393 renal,> 100 µM
same,TGI,RXF 393 renal,> 100 µM
same,GI50,MDA-MB-231 breast,45 µM
same,TGI,MDA-MB-231 breast,> 100 µM
same,GI50,UACC-257 melanoma,> 100 µM
same,TGI,UACC-257 melanoma,> 100 µM
same,GI50,SR leukemia,15.6 µM
same,TGI,SR leukemia,> 100 µM
same,GI50,HCT-15 colon,94.6 µM
same,TGI,HCT-15 colon,> 100 µM
same,GI50,SK-MEL-2 melanoma,> 100 µM
same,TGI,SK-MEL-2 melanoma,> 100 µM
same,GI50,A549 NSCLC,> 100 µM
same,TGI,A549 NSCLC,> 100 µM
same,GI50,OVCAR-3 ovarian,> 100 µM
same,TGI,OVCAR-3 ovarian,> 100 µM
same,GI50,COLO 205 colon,> 100 µM
same,TGI,COLO 205 colon,> 100 µM
same,GI50,PC-3 prostate,20.6 µM
same,TGI,PC-3 prostate,38.5 µM
same,GI50,HS 578T breast,97.4 µM
same,TGI,HS 578T breast,> 100 µM
same,GI50,OVCAR-8 ovarian,> 100 µM
same,TGI,OVCAR-8 ovarian,> 100 µM
same,GI50,SNB-19 CNS,> 100 µM
same,TGI,SNB-19 CNS,> 100 µM
same,GI50,SF-539 CNS,> 100 µM
same,TGI,SF-539 CNS,> 100 µM
same,GI50,NCI-H522 lung,38.4 µM
same,TGI,NCI-H522 lung,> 100 µM
same,GI50,SW-620 colon,> 100 µM
same,TGI,SW-620 colon,> 100 µM
same,GI50,SF-295 CNS,31.1 µM
same,TGI,SF-295 CNS,> 100 µM
same,GI50,NCI/ADR-RES ovarian,> 100 µM
same,TGI,NCI/ADR-RES ovarian,> 100 µM
same,GI50,MOLT-4 leukemia,86.3 µM
same,TGI,MOLT-4 leukemia,> 100 µM
same,GI50,TK-10 renal,> 100 µM
same,TGI,TK-10 renal,> 100 µM
same,GI50,CCRF-CEM leukemia,> 100 µM
same,TGI,CCRF-CEM leukemia,> 100 µM
same,GI50,MDA-MB-435,> 100 µM
same,TGI,MDA-MB-435,> 100 µM
same,GI50,SK-OV-3 ovarian,> 100 µM
same,TGI,SK-OV-3 ovarian,> 100 µM
same,GI50,K-562 leukemia,81.1 µM
same,TGI,K-562 leukemia,> 100 µM
same,GI50,NCI-H226 lung,> 100 µM
same,TGI,NCI-H226 lung,> 100 µM
same,GI50,T-47D breast,> 100 µM
same,TGI,T-47D breast,> 100 µM
same,GI50,OVCAR-5 ovarian,> 100 µM
same,TGI,OVCAR-5 ovarian,> 100 µM
same,GI50,786-0 renal,> 100 µM
same,TGI,786-0 renal,> 100 µM
same,GI50,RPMI-8226 leukemia,50.9 µM
same,TGI,RPMI-8226 leukemia,> 100 µM
same,GI50,UO-31 renal,63.5 µM
same,TGI,UO-31 renal,> 100 µM
same,GI50,CAKI-1 renal,> 100 µM
same,TGI,CAKI-1 renal,> 100 µM
same,GI50,KM12 colon,> 100 µM
same,TGI,KM12 colon,> 100 µM
same,GI50,A498 renal,> 100 µM
same,TGI,A498 renal,> 100 µM
same,GI50,HOP-92 NSCLC,> 100 µM
same,TGI,HOP-92 NSCLC,> 100 µM
same,GI50,UACC-62 melanoma,23 µM
same,TGI,UACC-62 melanoma,50.7 µM
